The values that follow come from PMC5497837 (Journal of basic and clinical physiology and pharmacology, 2016).

The assay concerns the target CB1 cannabinoid receptor (CB1R) (Mus musculus, UniProt P47746). The assay can be described thus: inhibition of forskolin-activated cAMP accumulation in N18TG2 cells. In kind it is cell-based. (In general: cAMP levels reflect the balance of adenylyl cyclase and phosphodiesterase activity.)

Chain of CB1 cannabinoid receptor (CB1R) (P47746 whole entry): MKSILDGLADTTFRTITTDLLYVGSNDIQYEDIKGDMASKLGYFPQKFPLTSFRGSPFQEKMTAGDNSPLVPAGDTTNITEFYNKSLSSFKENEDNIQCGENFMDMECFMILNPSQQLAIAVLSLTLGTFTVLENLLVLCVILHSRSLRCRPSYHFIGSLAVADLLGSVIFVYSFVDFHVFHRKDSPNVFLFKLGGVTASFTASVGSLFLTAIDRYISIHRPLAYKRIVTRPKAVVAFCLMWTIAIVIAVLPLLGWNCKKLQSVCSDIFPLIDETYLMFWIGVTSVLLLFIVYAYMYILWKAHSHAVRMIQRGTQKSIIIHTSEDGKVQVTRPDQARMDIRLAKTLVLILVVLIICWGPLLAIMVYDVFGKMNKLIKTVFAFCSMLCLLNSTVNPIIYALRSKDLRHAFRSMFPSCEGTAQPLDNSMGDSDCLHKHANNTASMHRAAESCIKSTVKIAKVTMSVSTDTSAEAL

On to `CCCCCCC(C)(C)c1ccc([C@@H]2C[C@@H](O)CC[C@H]2CCCO)c(O)c1` [CP55940, (-)-3-[2-hydroxyl-4-(1,1-dimethylheptyl)phenyl]-4-[3-hydroxylpropyl] cyclohexan-1-ol], for which the response was half-maximal at 3.11 nM (EC50).

Broadly, the EC50 is the concentration that produces a half-maximal response.
